The text below walks through data of patent publication EP4674849A1, “FLUORESCENT DYE FOR DETECTING NUCLEIC ACID” (Keio University, priority 2023, dated 2024).

The target in this experiment is deoxyribonucleic acid (derived from salmon sperm) with a length of 500 to 1000 bp. The experiment can be described thus: DNA binding assay of fluorescent dyes (fluorescence titration, fit to McGhee-von Hippel equation). Particulars: TE buffer (pH: 8.0); dye 200, 400, 800 nM; DNA 0.5-12 µM; excitation 475 nm, emission 520 nm; read-out: Dissociation constant Kd.

Text: The obtained results were fitted to the McGhee-von Hippel equation (Equation 1) to determine the dissociation constant (Kd) and the number of base pairs at the dye-binding site (N).

`CCCN(CCCN(C)C)c1cc(/C=C2/Sc3ccccc3N2C)c2ccccc2[n+]1-c1ccccc1`: the Kd (usually a measure of binding affinity in units of concentration) was determined as 1 ± 0.09 µM.
